# Read-outs that look alike come from different tables or passages of the source.
# What was measured:
# Plasma stability assay = format: in vitro ADME; details: pH 7.4, 37° C., 1 μM
# [1] = Caco-2 permeability (21 day culture of Caco-2 cell monolayer); format: in vitro ADME; details: human; for recovery at 120 min, 10 μM: Caco-2, pH 7.4, Caco-2
# Procedure, shortened: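 Caco-2 monolayers grown 21 days, used when TEER >230 ohm·cm2; compound at 10 μM final in HBSS pH 7.4 dosed apical or basal, receiver HBSS with 2% BSA, sampled at 120 min at 37° C. Bidirectional transport quantified by LC-MS/MS against single-point calibration.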
# [2] = target: T1, recombinant human TopI (HTopI) (Homo sapiens, UniProt P11387); experiment: Gel based plasmid DNA relaxation assay with recombinant TopI (in vitro); format: biochemical; details: recombinant human TopI, plasmid DNA relaxation
# T1 sequence (P11387 1-765): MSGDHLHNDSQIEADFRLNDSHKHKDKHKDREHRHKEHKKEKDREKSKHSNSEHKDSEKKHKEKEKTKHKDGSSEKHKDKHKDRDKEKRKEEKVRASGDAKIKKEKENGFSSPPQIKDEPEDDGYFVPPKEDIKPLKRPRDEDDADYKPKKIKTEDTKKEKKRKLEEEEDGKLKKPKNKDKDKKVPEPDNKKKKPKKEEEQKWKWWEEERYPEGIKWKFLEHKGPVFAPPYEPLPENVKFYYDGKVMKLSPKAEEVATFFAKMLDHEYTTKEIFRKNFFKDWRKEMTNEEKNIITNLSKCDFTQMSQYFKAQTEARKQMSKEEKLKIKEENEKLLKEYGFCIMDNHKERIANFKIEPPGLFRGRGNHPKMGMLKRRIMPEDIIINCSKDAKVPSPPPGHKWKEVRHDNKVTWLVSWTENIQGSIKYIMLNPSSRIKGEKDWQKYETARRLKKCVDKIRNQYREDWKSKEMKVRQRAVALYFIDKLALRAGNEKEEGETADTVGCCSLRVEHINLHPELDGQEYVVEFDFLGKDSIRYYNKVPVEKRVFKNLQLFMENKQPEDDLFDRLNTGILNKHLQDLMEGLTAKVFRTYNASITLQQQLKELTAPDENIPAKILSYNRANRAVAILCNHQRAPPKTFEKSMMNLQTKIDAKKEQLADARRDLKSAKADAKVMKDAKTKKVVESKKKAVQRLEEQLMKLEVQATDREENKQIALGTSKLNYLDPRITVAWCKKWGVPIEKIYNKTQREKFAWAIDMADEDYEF
# Procedure: Human ToPI Inhibition in Plasmid DNA Relaxation Assays with Recombinant TopI (In Vitro) or MCF7 Cell Lysates (Ex Vivo)
# Relaxation of supercoiled pBSSK(^+) DNA with recombinant human TopI (HTopI) at a molar ratio of 3:1 at 37° C. for 30 minutes was performed
# [3] = target: T2, human TopI-DNA cleavage complexes (TopIcc) (Homo sapiens, UniProt P11387); experiment: Plasmid DNA cleavage assay; format: biochemical; details: compared with CPT, FIG. 3 and 4
# T2 sequence (P11387 1-765): T1 sequence (P11387 1-765)
# Procedure: Cleavage reaction and electrophoresis in agarose gel were performed as described in B. Kundu, J. Med. Chem. 2019, 62, 3428-3446. Lane 1 comprises 50 fmol of pBluescript (SK^+) supercoiled DNA. Lanes 2-9 are same as lane 1 but incubated with equal amounts (100 fmol) of HTopI at the indicated concentration of CPT or compound 24 or only DMSO.
# The mechanism of TopI inhibition with compound 24 in the plasmid DNA cleavage assays was investigated.
# [4] = Lipophilicity assay (octanol/buffer Log D); details: n-octanol/sodium phosphate buffer, pH 7.4
# Procedure: 1.56 g NaH2PO4.2H2O was dissolved in 0.5 L water in a 1 L beaker. After adjusting pH to 7.4 using NaOH solution, the volume was made up to 1 L. Equal volumes of sodium phosphate buffer (10 mM, pH 7.4) and n-octanol were added to a separation funnel and mixed thoroughly by shaking and inverting the funnel several times. The two layers were allowed to separate for 2 days and then dispensed in two separate glass bottles. 10 mM stock solution was prepared in 100% DMSO and stored at 4° C. 500 μL of organic phase (1-octanol) was added to each well of a 2 mL deep well plate, followed by 500 μL of buffer and 15 μL of test substance was added. The plate was vortexed for 1 hr on a plate shaker at 1200 rpm. After incubation, the samples were allowed to equilibrate for 20 min and then centrifuged at 4000 rpm for 30 min for complete phase separation and analysed by LC-UV.
# Log D=Log(area of octanol/area of buffer)
# Mean, SD and % CV for each set of triplicates were calculated
structure (smiles),measurement,setting,value
"Nc1ccc(-c2ccc3ncc(-c4nnco4)c(NCCCn4ccnc4)c3c2)cn1 [Compound 24, N-(3-(1H-imidazol-1-yl)propyl)-6-(6-aminopyridin-3-yl)-3-(1,3,4-oxadiazol-2-yl)quinolin-4-amine]",Mean % remaining at 2 hrs in human Plasma,Plasma stability assay,84.18%
same,"efflux ratio at 120 min, 10 μM","[1]; Caco-2, pH 7.4",4.54
same,"recovery at 120 min, 10 μM",[1]; read-out: A to B % Recovery,77.3%
same,"recovery at 120 min, 10 μM",[1]; read-out: B to A % Recovery,77.7%
same,"Papp A→B at 120 min, 10 μM","[1]; pH 7.4, Caco-2, 10 μM, 120 min, read-out: Papp Apical to Basal",6.47 ×10⁻⁶ cm/s
same,"Papp B→A at 120 min, 10 μM","[1]; pH 7.4, Caco-2, 10 μM, 120 min, read-out: Papp Basal to Apical",27.4 ×10⁻⁶ cm/s
same,IC50,[2],21 nM
same,stabilisation/trapping of TopI-DNA cleavage complexes (TopIcc),[3],capable of stabilising TopIcc formation like CPT
same,logD,[4],3.51

# From patent US20210246128A1, “BICYCLE TOPOISOMERASE I INHIBITING COMPOUNDS, PROCESS FOR PREPARATION AND USE THEREOF” (Council of Scientific & Industrial Research, priority 2018, published 2021)
